Our source for the pest or weed control values is US9808003B2, “Herbicidally active 2-(substituted-phenyl)-cyclopentane-1,3-dione compounds and derivatives thereof” (Syngenta Limited, priority 2013, dated 2017).

What all share (assay): Test 1A glasshouse assay, post-emergence herbicidal activity
Holding throughout (format): in vivo

In experiment [1] the test system is Alopecurus myosuroides (ALOMY). The conditions noted are these: Alopecurus myosuroides, 312 h, application rate 250 g/ha, 13 days after application, visual (100%=total damage; 0%=no damage), read-out: Post-emergence Herbicidal Activity (% Phytotoxicity) ALOMY. In short, it runs like this: (§1)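 Test species were sown in pots of standard soil and cultivated for 8 days at 24/16 °C (day/night) with 14 h light and 65% humidity. Plants were next sprayed with the formulated active ingredient (acetone/water 50:50, 0.5% Tween 20). Damage was rated visually as % phytotoxicity 13 days later.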

A further experiment deals with Avena fatua (AVEFA). The following applies: Avena fatua, 312 h, application rate 250 g/ha, 13 days after application, visual (100%=total damage; 0%=no damage), read-out: Post-emergence Herbicidal Activity (% Phytotoxicity) AVEFA. The gist of the method:
as §1

The subject of experiment [2] is Echinochloa crus-galli (ECHCG). The conditions noted are these: Echinochloa crus-galli, 312 h, application rate 250 g/ha, 13 days after application, visual (100%=total damage; 0%=no damage), read-out: Post-emergence Herbicidal Activity (% Phytotoxicity) ECHCG. The gist of the method: as §1
The next experiment concerns Lolium perenne (LOLPE). The conditions noted are these: Lolium perenne, 312 h, application rate 250 g/ha, 13 days after application, visual (100%=total damage; 0%=no damage), read-out: Post-emergence Herbicidal Activity (% Phytotoxicity) LOLPE. In short, it runs like this:
as §1

`Cc1cc(C)c(C2C(=O)CC(CCNC(=O)c3ccc(Cl)cn3)C2=O)c(C)c1` (stereo not drawn) [Compound A118]: the pest or weed control at 250 g/ha (in experiment [1]; in the experiment on Avena fatua (AVEFA); in experiment [2]; in the experiment on Lolium perenne (LOLPE)) was 100% each time.

In the case of `Cc1ccnc(C(=O)NCCC2CC(=O)C(c3c(C)cc(C)cc3C)C2=O)c1` (stereo not drawn) [Compound A119], the pest or weed control at 250 g/ha amounted to 100% in experiment [1], 90% in the experiment on Avena fatua (AVEFA), 100% in experiment [2] and 90% in the experiment with Lolium perenne (LOLPE).

As to `Cc1cc(C)c(C2C(=O)CC(CCNC(=O)c3cc(Br)ccn3)C2=O)c(C)c1` (stereo not drawn) [Compound A121], the pest or weed control at 250 g/ha is 90% in experiment [1], 90% with Avena fatua (AVEFA), 100% in experiment [2] and 100% in the experiment with Lolium perenne (LOLPE).

For `COc1cc(C)c(C2C(=O)CC(CCNC(=O)c3ccccn3)C2=O)c(C)c1` (stereo not drawn) [Compound A122], the pest or weed control at 250 g/ha is 100% in experiment [1], 90% with Avena fatua (AVEFA), 100% in experiment [2] and 100% in the experiment on Lolium perenne (LOLPE).

In the case of `Cc1cccc(C)c1C1C(=O)CC(CCNC(=O)c2ccccn2)C1=O` (stereo not drawn) [Compound A123], the pest or weed control at 250 g/ha was 100% in experiment [1], 100% in the experiment on Avena fatua (AVEFA), 90% in experiment [2] and 100% in the experiment with Lolium perenne (LOLPE).

In the case of `Cc1cc(Cl)cc(C)c1C1C(=O)CC(CCNC(=O)c2ccccn2)C1=O` (stereo not drawn) [Compound A124], the pest or weed control at 250 g/ha (in experiment [1]; with Avena fatua (AVEFA); in experiment [2]; in the experiment with Lolium perenne (LOLPE)) was 100% throughout.

With `Cc1cc(Br)cc(C)c1C1C(=O)CC(CCNC(=O)c2ccccn2)C1=O` (stereo not drawn) [Compound A125], the pest or weed control at 250 g/ha (in experiment [1]; in the experiment on Avena fatua (AVEFA); in experiment [2]; with Lolium perenne (LOLPE)) was 100% throughout.

As to `Cc1cc(OCC(F)(F)F)cc(C)c1C1C(=O)CC(CCNC(=O)c2ccccn2)C1=O` (stereo not drawn) [Compound A126, N-[2-[3-[2,6-dimethyl-4-(2,2,2-trifluoroethoxy)phenyl]-2,4-dioxo-cyclopentyl]ethyl]pyridine-2-carboxamide], the pest or weed control at 250 g/ha (in experiment [1]; with Avena fatua (AVEFA); in experiment [2]; in the experiment with Lolium perenne (LOLPE)) was 100% each time.

Turning to `Cc1cc(Oc2ncc(Cl)cc2F)cc(C)c1C1C(=O)CC(CCNC(=O)c2ccccn2)C1=O` (stereo not drawn) [Compound A126A], the pest or weed control at 250 g/ha (in experiment [1]; with Avena fatua (AVEFA); in experiment [2]; with Lolium perenne (LOLPE)) was 90% in each case.

As to `Cc1cc(Oc2ncc(C(F)(F)F)cc2Cl)cc(C)c1C1C(=O)CC(CCNC(=O)c2ccccn2)C1=O` (stereo not drawn) [Compound A126B, N-[2-[3-[4-[[3-chloro-5-(trifluoromethyl)-2-pyridyl]oxy]-2,6-dimethyl-phenyl]-2,4-dioxo-cyclopentyl]ethyl]pyridine-2-carboxamide], the pest or weed control at 250 g/ha came to 90% in experiment [1], 90% in the experiment with Avena fatua (AVEFA), 100% in experiment [2] and 90% in the experiment with Lolium perenne (LOLPE).

`Cc1cc(-n2cc(Cl)cn2)cc(C)c1C1C(=O)CC(CCNC(=O)c2ccc(F)cn2)C1=O` (stereo not drawn) [Compound A129]: the pest or weed control at 250 g/ha (in experiment [1]; in the experiment with Avena fatua (AVEFA); in experiment [2]; in the experiment on Lolium perenne (LOLPE)) was 100% each time.

As for `Cc1cccc(C(=O)NCCC2CC(=O)C(c3c(C)cc(-n4cc(Cl)cn4)cc3C)C2=O)n1` (stereo not drawn) [Compound A130], the pest or weed control at 250 g/ha in experiment [1] was determined as 30%; with Avena fatua (AVEFA), 80%; in experiment [2] it was 80%; with Lolium perenne (LOLPE) it was 80%.
